Measured values: patent US20050209104A1, “Dinoflagellate karlotoxins, methods of isolation and uses thereof” (priority 2002, published 2005)
≈ marks a conversion by molar mass, not a printed value.

Assays:
[1] = system: rainbow trout erythrocytes
Method: The filtrate from water samples collected on Feb. […] Environmental water samples were allowed to thaw to room temperature and passed through a Sep-Pak Plus tC18 disposable cartridge (Waters Corp., Milford Mass.), attached to a vacuum manifold. The column was pre-equilibrated with methanol (20 ml) followed by H2O (20 ml). The cartridges were eluted with the following concentrations of MeOH/H2O: 100% H2O, 40%, 60%, 80%, and 100% MeOH (12 ml ea^−1). An aliquot of each elution was diluted, using Tris buffer +CaCl2, to give final dilutions ranging from 6 to 60% of original concentrations. […] The occurrence of hemolytic activity was determined by the absorbance of released hemoglobin, measured at 540 nm. Saponin (10 μg) served as a positive hemolysin control. Treatments were run in quadruplicate.
A hemolytic assay based on the lysis of fish erythrocytes was utilized to screen for bioactive materials. Cultures and culture fractions that were positive in the hemolytic assay were tested further using assays for ichthyotoxicity and cytotoxicity.
Blood was extracted from the caudal vein of rainbow trout (Oncorhynchus mykis) provided by the Center of Marine Biotechnology's Aquaculture Research Center. Needles were heparin (Sigma Chemical Co., St. Louis Mo.) treated and 10 units ml^−1 of additional heparin was added to whole blood samples to prevent clotting. […] Buffer pH was adjusted to 7.4 at 10° C. with 1N HCl, then filter sterilized (0.22 μm). […] Suspensions were stored at 4° C. for no longer than 10 days.
Hemolytic assays were performed by diluting test material in Tris buffer +CaCl2 (100 μl total) and adding this to a 5% erythrocyte suspension (100 μl). […] Assays were incubated on an orbital shaker (80-100 rpm) at 20° C. for 1 hour. Plates were then centrifuged at 2500 g for 5 min. and the supernatant (100 μl) was transferred to another flat bottom 96 well polystyrene plate, where the absorbance of released hemoglobin was read at 540 nm. Saponin (10 μg) (from Quillaja bark; Sigma Chemical Co., St. Louis Mo.) was used as a positive hemolysin control All treatments were run in quadruplicate.
LC50values and ranges were determined by Probit analysis (SPSS Base 10.0, SPSS Inc., Chicago Ill.).
Blood was extracted from the caudal vein of rainbow trout (Oncorhynchus mykis). […] Buffer pH was adjusted to 7.4 at 10° C. with 1N HCl, then filter sterilized (0.22 um). […] Blood suspensions were stored at 4° C. for no longer than 10 days.
Hemolysis assays were performed by diluting test material in Tris buFFer +CaCl2 (100 ul) and adding this to 100 ul of a 5% erythrocyte suspension for a total assay volume of 200 ul. […] Plates were incubated on an orbital shaker (80-100 rpm) at 20° C. for 1 hour. Plates were then centrifuged at 2000 g for 5 min. and the supernatant (100 ul) was transferred to a new flat bottom 96 well polystyrene plate, where the absorbance of released hemoglobin was read at 540 nm. Saponin (from Quillaja bark; Sigma Chemical Co., St. Louis Mo.) was used as a positive hemolysin control. Percent hemolysis (0-100%) was calculated from comparison to un-treated controls and samples treated with 10 ug saponin. All treatments were run in quadruplicate.
Hemolytic LC50 values were calculated from a dilution series of KmTx 2 and amphotericin B. LC50 values and ranges were determined by Probit analysis using a SPSS Base 10.0 statistical software package (SPSS Inc., Chicago, Ill.).

[2] = system: Candida albicans (ATCC 14053); experiment: Anti-fungal broth microdilution assay (yeast); format: cell-based; conditions: lowest dose with no growth after 96 hours, 28° C.
Method: (§1) The following fungal strains were purchased from the American Type Culture Collection (Manassas, Va.), Aspergillus niger (ATCC 1004) as a representative filamentous fungi, and Candida albicans (ATCC 14053) as a representative yeast. Assays were performed according to the following National Committee for Clinical Laboratory Standards documents; M27-A2 Reference Method for Broth Dilution Antifungal Susceptibility Testing of Yeasts; Approved Standard—Second Edition([NCCLS, 2002), and M38-A Reference Method for Broth Dilution Antifungal Susceptibility Testing of Filamentous Fungi; Approved Standard (NCCLS, 2002). Procedures for the broth microdilution modification were followed for both species with the following exceptions; A. niger stocks were maintained on Potato Dextrose Agar at 25° C., while C. albicans was maintained on Yeast Malt Agar at 28° C., both according to ATCC recommendations. Amphotericin B was used as a positive control. Microdilution assays were performed in HyQ-RPMI-1640 media (HyClone, Logan, Utah.), with 2.05 mM L-glutamine, without sodium bicarbonate, pH 7.2 using dilutions of 1 mg/ml DMSO stocks of KmTx 2 and amphotericin B.
(§2) The following concentrations were tested for both KmTx2 and amphotericin B: 0.0625, 0.125, 0.25, 0.5, 1, 2, 4, 8, and 16 μg/ml. A maximum of 1.6% DMSO was added to any given well. Plates were incubated at 25 and 28° C., respectively, for A. niger and C. albicans. […] Amphotericin B and all culture media were purchased from Sigma-Aldrich (St. Louis, Mo.).

[3] = system: Aspergillus niger (ATCC 1004); experiment: Anti-fungal broth microdilution assay (filamentous fungi); format: cell-based
Method: as §1, §2

## C=C(CC[C@H](O)[C@H]1O[C@H](C[C@@H](O)[C@H](O)[C@H](C)CCC[C@@H](O)[C@H](O)[C@H](O)[C@@H](C)CC[C@@H](O)[C@H](O)[C@H](C)C[C@@H](O)CCC[C@@H](O)CCC[C@@H](O)/C=C/C[C@@H](O)CO)[C@@H](O)[C@@H](O)[C@@H]1O)[C@H](O)[C@H](O)[C@@H]1C[C@H](O)[C@H](O)[C@@H]([C@H](O)[C@@H](O)/C=C/CCCCCCCC/C=C/C=C/Cl)O1 [KmTx 2]
[1]; probit analysis of dilution series
  hemolytic LC50: 0.368 µg/mL
[1]; rainbow trout erythrocytes
  hemolytic activity compared to amphotericin B: ten fold higher
[2]
  Minimal inhibitory concentration (MIC): 16 µg/mL (≈ 11.9 µM)
[3]; depending on species tested (A. niger, C. albicans)
  anti-fungal activity, fold lower than for amphotericin B: 10-100 fold
[3]; lowest dose with no growth after 96 hours, 25° C.
  Minimal inhibitory concentration (MIC): 8 µg/mL (≈ 5.94 µM)
